Assay results taken from US20210163451A1, “METHODS AND COMPOSITIONS FOR SUBSTITUTED 2,5-DIKETOPIPERAZINE ANALOGS” (University of Florida Research Foundation, Inc., priority 2018, published 2021).
Marks after values point to notes of the source that are not given here.

Assays:
TxtA = TxtA substrate scope in TxtA/TxtB reactions; format: biochemical, S. scabies 87.22
Experimental: To explore whether TxtA/B are versatile to generate a library of thaxtomin D analogs, enzymes' substrate tolerance was then examined in the reactions. […] Subsequently, the substrate scope of TxtA with 17 I-Phe analogs was assessed with various substituents at α-position or C2, C3, and C4 of the aryl group (Table 1).
(§1) TxtA/B reaction: 100 mM Tris-Cl (PH=8.0), 0.5 mM Nitro-L-tryptophan or L-tryptophan, 0.55 mM L-Phenylalanine, 3.2 μM txtA, 14.5 μM txtB, 2.5 mM ATP and 2 mM SAM in 100 μL reaction. 21° C. shaken with 400 rpm for 20 hours.
(§2) TB14 and txtA/B coupling reaction: 100 mM Tris-Cl (PH=8.0), 0.5 mM L-tryptophan, 0.55 mM L-Phenylalanine, 1.5 mM NAPDH, 0.75 mM NOC-5, 3.2 μM txtA, 14.5 μM txtB, 2.5 mM ATP, 2 mM SAM and 11.1 μM TB14 in 100 μL reaction. Opened to air, 21° C. shaken with 400 rpm for 30 hours.
(§3) To probe the basis of chemical diversity of Thx DKP scaffold, next characterized was the substrate scopes of TxtA and TxtB. […] Chem. Int. Ed. Engl. […] The substrate preference of TxtB was then assessed. […] Chem. Int. Ed. Engl. 2018 57:6830-6833]. […] Chem. Biol. 2018 14: 428-430].
(§4) The TxtA/B reaction solutions (100 μl) typically contained 100 mM Tris-Cl, pH 9.0, 0.5 mM amino acid substrates, 10 mM MgCl2, 2.5 mM ATP and 2 mM SAM. The reactions were initiated by adding 1.2 μM TxtA and 1.3 μM TxtB (final concentration) and incubated at 21° C. with shaking at 400 rpm. After 30 h, the reactions were terminated by mixing with 200 μl of methanol. Quenched solutions were centrifuged at 4° C., 16,000×g for 15 min and clear supernatants were collected and subjected to HPLC and LCMS analysis as detailed below. All experiments were repeated independently at least twice. The reaction solutions of TB14 and TxtA and TxtB were the same as those of TxtA and TxtB except the inclusion of 1.5 mM NAPDH, 0.75 mM NOC-5 and 11.1 μM TB14. The reactions were run for 30 h and the products were analyzed and quantitated as described above.

radish seedlings = assay: Herbicidal activity in radish seedling assay; format: in vivo; details: total seedling length after 7 days on agar, 0 to 2 μM, mean±SD (n=4)
Experimental: Established protocols were followed to quantitate thaxtomin herbicidal activity in radish seedling assay (Jiang, G. et al. Appl Environ Microbiol 2018 84:e00164-18). In brief, serial concentrations (0 to 2 μM) of thaxtomins in DMSO were added into 20 mL of 1.5% warm agar solution with gentle agitation to prepare agar plates. DMSO was included as the negative control. Radish seeds (Burpee) were surface disinfested, pregerminated and selected when the radicle was […] and just emerged from the seed coat. Six radish seedlings were equally located on the surface of each plate with root ends pointed to the same direction. Agar plates were covered, sealed with Parafilm. Seedlings in agar plates grew at room temperature under 14-16 h fluorescent light per day for 7 days, and total seedling lengths were then recorded. The longest and the shorted seedlings would be excluded from the data analysis. Percent inhibition relative to the mean growth response in negative control was then calculated. Dose-response curves were fit to a four-parameter logistic model, and I50 values were determined from these curves.

TxtB = TxtB substrate scope in TxtA/TxtB reactions; format: biochemical, S. scabies 87.22; parameters: key to TxtB substrate: +++++: Five ‘+’ represents the strong reactivity; ++++: The number of ‘+’ represents the reactivities of the enzymes to the substrate; +++: The number of ‘+’ represents the reactivities of the enzymes to the substrate; ++: The number of ‘+’ represents the reactivities of the enzymes to the substrate; +: one represent very weak reactivities
Experimental: Using the above strategy, it was determined that TxtB accepted only I-Trp among all 20 natural amino acids in the reaction (FIG. 2B, Table 1). When incubating with 15 I-Trp analogs with various substituents at α-position or C4, C5, C6 and C7 of I-Trp indole (Table 1), TxtB was able to use 4-F, 4-Me, 5-F, and 6-F-tryptophan as substrates in the DKP synthesis (Table 1). […] Indeed, the Micklefield group recently produced several thaxtomin analogs with C4-H, F, Cl, Br, or Me when expressing txtA/B in S. albus. The advanced understanding of substrate scopes of TxtA/B led to enzymatic creation of a library of 30 DKPs with 5 I-Trp analogs and 6 I-Phe analogs (FIG. 3C). The production of all DKPs were confirmed in HPLC analysis and verified in high resolution LC-MS analysis (Table 2).
as §1
To probe the basis of chemical diversity of Thx DKP scaffold, next characterized was the substrate scopes of TxtA and TxtB. […] Bulkier aryl substituents decreased enzyme activity. […] From the modelled structure of TxtA adenylation (A) domain (FIG. 23), it was identified that Trp225 likely controls the binding of bulky L-Phe analogues. Indeed, the TxtA W225S mutant [Kries, H. et al. Angew. Chem. Int. Ed. Engl. […] We confirmed the product as p-azido-Thx D by HRMS, MS/MS, 1D and 2D NMR analysis (FIGS. 24-25). The substrate preference of TxtB was then assessed. […] Additionally, TxtB utilized 4F-L-, 5F-L-, 4Me-D,L- and 6F-D,L-Trp out of 15 L-Trp analogues carrying various substituents (Table 7) as substrates to synthesize desnitro dimethylated DKP analogues (FIG. 22). […] The tolerance to small modifications on L-Trp indole by TxtB agreed with a recent in vivo study by the Micklefield group [Winn, M. et al. Angew. Chem. Int. Ed. Engl. 2018 57:6830-6833]. […] Chem. Biol. 2018 14: 428-430].
as §4

[1] = tested on: TB14, TCB14, TxtA and TxtB; assay: Conversion to thaxtomin A analogues in the reactions of TB14, TCB14, TxtA and TxtB; format: biochemical; details: thaxtomin A analogue product from the listed L-Phe and L-Trp analogues
TxtA-W225S = TxtA-W225S mutant substrate scope in TxtA/TxtB reactions; format: biochemical, S. scabies 87.22; details: for TxtA-W225S substrate: Table 1, Example 1
Experimental: The nitro group of thaxtomins is essential for herbicidal activity, and is installed by TxtE. […] NADPH, NOC-5 as NO donor and SAM were included in the reaction. […] To further expand the substrate scope of TxtA, Trp225 was mutated into Ser in TxtA.
as §1, §2, §3, §4

TB14, TxtA and TxtB = assay: Conversion to nitro-DKPs in the reactions of TB14, TxtA and TxtB; format: biochemical; details: nitro-DKP product from the listed L-Phe and L-Trp analogues

N[C@@H](Cc1ccc(F)cc1)C(=O)O [4F-L-phenylalanine]
relative activity of TxtA toward substrate, relative to L-Phe (TxtA; Example 1, TxtA/B reaction with 4-NO2-L-Trp as TxtB substrate): ~72% | TxtA substrate (TxtA; Table 1, Example 1): +++ | TxtA substrate (TxtA; Table 7, Example 2): ++

Cc1ccc(C[C@H](N)C(=O)O)cc1 [4Me-L-phenylalanine]
TxtA substrate (TxtA; Table 1, Example 1): +++ | TxtA substrate (TxtA; Table 7, Example 2): +

Cc1ccc(C[C@@]2(O)C(=O)N(C)[C@@H](Cc3c[nH]c4cccc([N+](=O)[O-])c34)C(=O)N2C)cc1O [4′Me-Thx A, 4′Me-thaxtomin A]
IC50 (radish seedlings; Raphanus sativus, 168 h): 410 ± 10 nM

Cc1ccc(C[C@H]2C(=O)N(C)[C@@H](Cc3c[nH]c4cccc([N+](=O)[O-])c34)C(=O)N2C)cc1 [4′Me-Thx D, 4′Me-thaxtomin D]
IC50 (radish seedlings; Raphanus sativus, 168 h): 480 ± 40 nM

N[C@@H](Cc1c[nH]c2ccc(F)cc12)C(=O)O [5F-Tryptophan, 5F-L-tryptophan]
TxtB substrate (TxtB; Table 1, Example 1): ++ | TxtB substrate (TxtB; Table 7, Example 2): ++

CN1C(=O)[C@](O)(Cc2cccc(O)c2)N(C)C(=O)[C@@H]1Cc1c[nH]c2cccc([N+](=O)[O-])c12 [Compound 1, thaxtomin A, reference compound]
Conversion rate % [1]: 6.84% | IC50 (radish seedlings): 390 ± 30 nM

N[C@@H](Cc1ccccc1)C(=O)O [L-phenylalanine]
TxtA substrate (TxtA; Table 1, Example 1): +++++^a | TxtA substrate (TxtA; Table 7, Example 2): +++++ | TxtA-W225S substrate (TxtA-W225S): + | TxtAW225S substrate (TxtA-W225S; Table 7, Example 2): +

N[C@@H](Cc1c[nH]c2ccccc12)C(=O)O [L-tryptophan]
TxtB activity, times less active than 4-NO2-L-Trp (TxtB; Example 2, reaction without TB14): 12 times | TxtB substrate (TxtB; Table 1, Example 1): + | TxtB substrate (TxtB; Table 7, Example 2): +

N[C@@H](Cc1ccc(O)cc1)C(=O)O [L-tyrosine]
substrate preference of TxtAW225S mutant (TxtA-W225S; Example 1): lower activity | TxtA-W225S substrate (TxtA-W225S): ++

CN1C(=O)[C@H](Cc2c[nH]c3cccc([N+](=O)[O-])c23)N(C)C(=O)[C@@H]1Cc1ccc(N=[N+]=[N-])cc1 [compound 42]
Conversion rate % (TxtA-W225S; catalyzed by TxtB and TxtAW225S (with TB14)): 20.90%

Cc1ccc(C[C@H]2C(=O)N(C)[C@@H](Cc3c[nH]c4cccc([N+](=O)[O-])c34)C(=O)N2C)cc1 [compound 54]
Conversion rate % (TB14, TxtA and TxtB): 15.69%

Cc1ccc(C[C@@]2(O)C(=O)N(C)[C@@H](Cc3c[nH]c4cccc([N+](=O)[O-])c34)C(=O)N2C)cc1O [compound 118]
Conversion rate % [1]: 3.98%

Cc1cccc2[nH]cc(CC3C(=O)N(C)C(Cc4ccccc4)C(=O)N3C)c12 (stereo not shown) [desnitro-4Me-Thx D]
IC50 (radish seedlings): 1980 ± 20 nM

CN1C(=O)[C@H](Cc2c[nH]c3cccc([N+](=O)[O-])c23)N(C)C(=O)[C@@H]1Cc1ccc(N=[N+]=[N-])cc1 [p-N3-Thx D, p-N3-thaxtomin D]
IC50 (radish seedlings; Raphanus sativus, 168 h): 1290 ± 210 nM
